{
  "source": "ChEMBL document CHEMBL1121675",
  "about": "“Syntheses of 9-acridine- and 2-phenanthridinemethanols as potential antimalarials” (1981)",
  "key": {"Mus musculus [1]": {"test_system": "Mus musculus", "assay": "Decrease in life span of mice treated with compound dose of 160 mg/kg", "assay_type": "functional"}, "Mus musculus [2]": {"test_system": "Mus musculus", "assay": "Decrease in life span of mice treated with compound dose of 320 mg/kg", "assay_type": "functional"}, "Plasmodium berghei [3]": {"test_system": "Plasmodium berghei", "assay": "Percent inhibition of hypoxanthine uptake by Plasmodium berghei", "assay_type": "functional"}, "Plasmodium berghei [4]": {"test_system": "Plasmodium berghei", "assay": "Percent inhibition of adenosine uptake by Plasmodium berghei", "assay_type": "functional"}, "Salmonella typhimurium [5]": {"test_system": "Salmonella typhimurium", "assay": "Mutagenic response at 1000 nmol/plate or lower for strain TA 100 of Salmonella Typhimurium; Not significant", "assay_type": "functional, organism-based", "settings": "Salmonella enterica subsp. enterica serovar Typhimurium"}, "Salmonella typhimurium [6]": {"test_system": "Salmonella typhimurium", "assay": "Mutagenic response at 1000 nmol/plate or lower for strain TA 98 of Salmonella Typhimurium; Not significant", "assay_type": "functional, organism-based", "settings": "Salmonella enterica subsp. enterica serovar Typhimurium"}},
  "note": "Active and inactive are the calls of the source. The rule behind the calls is not given here.",
  "data": [
    {"smiles": "CCCCN(CCCC)CCC(O)c1c2ccccc2nc2ccccc12", "note": "(stereo not drawn)", "values": [
      {"measurement": "Decrease in life span", "setting": "Mus musculus [1]", "value": 0.4, "unit": "days"}
    ]},
    {"smiles": "CCCCN(CCCC)CC(O)c1ccc2ncc3ccccc3c2c1", "note": "(stereo not drawn)", "values": [
      {"measurement": "Decrease in life span", "setting": "Mus musculus [2]", "value": 0.1, "unit": "days"}
    ]},
    {"smiles": "OC(CN1CCCCC1)c1c2ccccc2nc2ccccc12", "note": "(stereo not drawn)", "values": [
      {"measurement": "Inhibition", "setting": "Plasmodium berghei [3]", "value": 50, "unit": "%"},
      {"measurement": "Inhibition", "setting": "Plasmodium berghei [4]", "value": 31, "unit": "%"}
    ]},
    {"smiles": "c1ccc2c(C3CO3)c3ccccc3nc2c1", "note": "(stereo not drawn)", "values": [
      {"measurement": "Mutagenicity", "setting": "Salmonella typhimurium [5]", "value": "inactive"},
      {"measurement": "Mutagenicity", "setting": "Salmonella typhimurium [6]", "value": "inactive"}
    ]},
    {"smiles": "CCN(CC)CCCC(C)Nc1c2ccc(Cl)cc2nc2ccc(OC)cc12", "note": "(stereo not drawn) [QUINACRINE]", "values": [
      {"measurement": "Inhibition", "setting": "Plasmodium berghei [3]", "value": 92, "unit": "%"},
      {"measurement": "Inhibition", "setting": "Plasmodium berghei [4]", "value": 80, "unit": "%"}
    ]}
  ]
}
